Results reported in patent publication US7129361B2, “Thienylazolylalkoxyethanamines, their preparation and their application as medicaments” (Laboratorios del Dr. Esteve, S.A., priority 1998, dated 2006).

Tested on: not given
Experiment: not given
Details: not given
`Cn1nccc1C(C)(O)c1cccs1` (stereo not drawn) [Example 21, 5-[1-hydroxy-1-(2-thienyl)ethyl]-1-methyl-1H-pyrazol] gave a melting point of 130 to 131 °C.

Tested on: Male Swiss mice
Experiment: Analgesic activity: inhibition of contortions induced by phenylbenzoquinone in mice (Siegmund method)
Type: in vivo
Details: 160 mg/Kg, oral administration, 60 minutes before i.p. phenylbenzoquinone; contortions counted for 15 minutes; versus vehicle control
Experimental: Analgesic Activity: Inhibition of Contortions Induced by Phenylbenzoquinone in Mice
The method described by Siegmund (E. Siegmund, et al, Proc. Exp. Biol. Med., 1957, 95, 729) has been used. Male Swiss mice are used, weighing between 17 and 22 grams and in groups of at least four animals.
The contortions are induced by injecting i.p. phenyl-p-benzoquinone (25 ml/Kg of a solution of 0.02% ethanol/water −5% v/v—with Evans blue at a mixing ratio of 0.1% p/v). The contortions are counted for 15 minutes after the moment of the injection. The products to be tested are suspended in Arabic gum (5% p/v) and distilled water and administered orally, at a dosage of 160 mg/Kg, 60 minutes before the phenylbenzoquinone injection. The inhibition of contortions produced by each product is determined, taking the contortions of a group of animals given a control as a reference. These animals only receive the vehicle orally, 60 minutes before administration of phenylbenzoquinone.
In the case of `CN(C)CCOC(c1cccs1)c1ccnn1C.O=C(O)CC(O)(CC(=O)O)C(=O)O` (stereo not drawn) [Example 2, Citrate of 5-{α-[2-(dimethylamino)ethoxy]-2-thienylmethyl}-1-methyl-1H-pyrazol], the “% Inhibition of contortions” value is reported as 65%.
With `Cc1ccsc1C(OCCN(C)C)c1ccnn1C` (stereo not drawn) [Example 5, 5-{α-[2-(dimethylamino)ethoxy]-3-methyl-2-thienylmethyl}-1-methyl-1H-pyrazol] the “% Inhibition of contortions” value was 45%.
With `CN(C)CCOC(C)(c1cccs1)c1ccnn1C` (stereo not drawn) [Example 9, 5-{1-[2-(dimethylamino)ethoxy]-1-(2-thienyl)ethyl}-1-methyl-1H-pyrazol] the “% Inhibition of contortions” value was 37%.
With `CC(=O)Oc1ccccc1C(=O)O` [Acetylsalicylic acid, reference compound] the “% Inhibition of contortions” value was 51%.
In the case of `CC(=O)Nc1ccc(O)cc1` [N-acetyl-p-aminophenol, reference compound], the “% Inhibition of contortions” value is reported as 34%.
For `CN(C)CCOC(c1cccs1)c1ccnn1C.O=C(O)CC(O)(CC(=O)O)C(=O)O` (stereo not drawn) [Example 12, Citrate of (+)-5-{α-[2-(dimethylamino)ethoxy]-2-thienylmethyl}-1-methyl-1H-pyrazol], the “% Inhibition of contortions” value was 52%.
In the case of `CN(C)CCOC(c1cccs1)c1ccnn1C.O=C(O)CC(O)(CC(=O)O)C(=O)O` (stereo not drawn) [Example 13, Citrate of (−)-5-{α-[2-(dimethylamino)ethoxy]-2-thienylmethyl}-1-methyl-1H-pyrazol], the “% Inhibition of contortions” value is reported as 87%.
For `CN(C)CCOC(c1cccs1)c1ccnn1C` (stereo not drawn) [Example 1, 5-{α-[2-(dimethylamino)ethoxy]-2-thienylmethyl}-1-methyl-1H-pyrazol], the “% Inhibition of contortions” value was 71%.
